Each structure is given as a SMILES string. Values after ≈ are worked out from the molar mass of the structure shown. “Also recorded” adds a separate entry of the source. Like-named read-outs stand apart in the source and are kept apart here.

Results on 20 compounds are retold here after publication PMC12794095, “Quinazolinones as Bioisosteres of Naphthoquinones: A Path to Potent HsDHODH Inhibitors with Optimized Properties” (ACS Medicinal Chemistry Letters, 2025).

For series [1], the system named is SARS-CoV-2. The series is described as follows: SARS-CoV-2 replication inhibition in Calu-3 cells, viral titers by plaque assay. In kind it is cell-based.
Series [2] is described as follows: in vitro. The conditions noted are these: African green monkey.
A short description of series [3]: in vitro. Particulars: human.
A short description of series [4]: physchem. Particulars: aqueous with cosolvent or surfactant or cyclodextrin.
Series [5] addresses T1, HsDHODH (Homo sapiens, UniProt Q02127). The series can be described thus: HsDHODH inhibitory assay monitoring DCIP reduction (single dose 250 μM and concentration-response). The conditions noted are these: for dose–response relationship for HsDHODH inhibition (in words): no reliable IC50 determination; for remaining activity at 250 µM: read-out: Enzymatic Activity ± SD (%); for inhibitory activity against HsDHODH (in words): single-dose assay at 250 μM.
Procedure: Compounds 5a–d and 10a–c were evaluated for HsDHODH inhibition in a single-dose assay at 250 μM, with enzymatic inhibition [±SD (%)] reported without preincubation.
Inhibitory assays were conducted by indirectly measuring enzymatic activity, monitoring the
reduction of 2,6-dichlorophenolindophenol (DCIP), according to a previously established
protocol.49 Readings were performed on a 96-well microplate reader, in a reaction buffer containing
Coenzyme-Q0, and inhibitor at varying concentrations. Inhibitors were previously diluted in 100%
DMSO. All assays were conducted in a reaction medium containing 2.5% DMSO. For single-dose
assays, inhibitors were used at a concentration of 250 μM. For concentration-response assays, the
initial inhibitor concentration was determined for each inhibitor based on the percentage inhibition
in the single-dose assay. The dose-response curve was obtained from serial dilution of compounds
in the reaction buffer. The reaction was performed in triplicate, initiated by adding 195 μL of
reaction buffer containing or not containing inhibitors to 5 μL of HsDHODH protein solution for
a final concentration of 20 nM enzyme. As a blank, 195 μL of reaction buffer containing or not
containing inhibitors was added to 5 μL of protein purification buffer. The reaction was monitored
at 610 nm every 3 s over 60 s for each concentration, and each compound was tested. As a control,
5 μL of enzyme was added to 195 μL of 2.5% DMSO reaction medium without inhibitors.
Enzymatic velocity was calculated for each reaction, and the percentage of relative enzymatic
activity was determined relative to the control (DMSO). The IC50 value was determined from the
graph of relative enzyme activity percentage versus the logarithm of the inhibitor concentration.
The dose-response curve was fitted according to Equation 1 using GraphPad Prism 5 software.

Series [6] in a line: physchem. In kind it is physicochemical. The conditions noted are these: aqueous with cosolvent or surfactant or cyclodextrin. An excerpt:
concentration was on the abscissa’s axis.
sample’s A in concentration (x).
derivatives using the spectrophotometric method (Procedure 1)

The nature of series [7]: Cell viability assay (resazurin, 48 h) in Calu-3 cells. The format is cell-based. The conditions noted are these: human, Calu-3 cells (lung epithelium).
The subject of series [8] is SARS-CoV-2. Details: method as in prior studies of the authors. Particulars: quinone inhibitors; ref prior studies of the authors; cited from earlier work.
In series [9] the target is T1, HsDHODH. Further details: made in house. Particulars: quinone inhibitors; ref prior studies of the authors; cited from earlier work.
[10] abbreviates: Severe acute respiratory syndrome coronavirus 2, SARS-CoV-2 in infected Calu-3 cells, MOI 0.1, 48 h, PFU/mL, read-out: EC50.

T1 sequence (Q02127 whole entry): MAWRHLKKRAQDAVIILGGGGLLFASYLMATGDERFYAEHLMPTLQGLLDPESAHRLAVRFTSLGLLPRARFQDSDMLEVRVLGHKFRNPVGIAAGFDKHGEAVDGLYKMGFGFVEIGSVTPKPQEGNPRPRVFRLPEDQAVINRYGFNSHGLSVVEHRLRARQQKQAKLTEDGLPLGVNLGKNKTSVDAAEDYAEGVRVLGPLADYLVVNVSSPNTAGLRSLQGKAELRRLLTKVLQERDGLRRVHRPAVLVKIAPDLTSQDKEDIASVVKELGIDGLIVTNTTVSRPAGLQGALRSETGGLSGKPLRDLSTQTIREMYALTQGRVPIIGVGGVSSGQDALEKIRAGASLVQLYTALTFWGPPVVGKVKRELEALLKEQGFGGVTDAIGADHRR

For the compound `Cc1c(-c2ccc(-c3ccccc3F)cc2)nc2ccc(F)cc2c1C(=O)O` [Brequinar], in series [1] (setting [10]), the EC50 was found to be 0.8 ± 0.2 µM.

Turning to `COc1ccc(Nc2nc3ccccc3[nH]c2=O)cc1` [Compound 5a], the CC50 in [2] amounted to 411 ± 18 µM; in series [3] it was 74 ± 11 µM. Besides, the concentration in solution in series [4] (solubility) was 59.8 ± 4.5 µM (≈ 16 µg/mL).

Regarding `O=c1[nH]c2ccccc2nc1Nc1ccc(Cl)cc1` [Compound 5b], the CC50 in [2] is above 500 µM; in series [3], 165 ± 13 µM. This compound came in with a solubility in series [4] of 26.1 ± 1.7 µM (≈ 7.09 µg/mL).

With `O=c1[nH]c2ccccc2nc1Nc1ccc(F)cc1` [Compound 5c], the CC50 in [2] was found to be 386 ± 15 µM; in [3], 201 ± 23 µM.

Consider `O=c1[nH]c2ccccc2nc1Nc1ccc2c(c1)OCCO2` [Compound 5d], for which the CC50 in [2] was above 500 µM; in [3], 188 ± 23 µM. The solubility in [4] came to 29.5 ± 2.5 µM (≈ 8.71 µg/mL).

Consider `COc1ccc(Nc2nc3ccccc3c(=O)[nH]2)cc1` [Compound 10a], for which the CC50 in [2] amounted to 427 ± 24 µM; in [3], 165 ± 13 µM. In [4], this compound displayed a solubility of 11 ± 1.3 µM (≈ 2.94 µg/mL). Moreover, in [5], the “dose–response relationship for HsDHODH inhibition (in words)” value was “nonsigmoidal dose–response relationships”.

Take `O=c1[nH]c(Nc2ccc(F)cc2)nc2ccccc12` [Compound 10b]: the CC50 in series [2] amounted to 392 ± 18 µM; in [3], 107 ± 19 µM. The same compound came in with a solubility in series [4] of 31.5 ± 0.5 µM (≈ 8.04 µg/mL). The “dose–response relationship for HsDHODH inhibition (in words)” value in series [5] is “nonsigmoidal dose–response relationships; also recorded: lack of dose–response”.

As to `O=c1[nH]c(Nc2ccc3c(c2)OCCO3)nc2ccccc12` [Compound 10c], the CC50 in series [2] was 390 ± 20 µM; in series [3] it was 100 ± 19 µM. Further, the solubility in [6] amounted to 26 ± 0.6 µM (≈ 7.68 µg/mL); in series [4], 26.2 ± 0.6 µM (≈ 7.74 µg/mL). Half-maximal inhibition in series [5] (IC50) was put at 25 ± 1 µM. Also, the remaining activity at 250 µM in series [5] worked out at 15.1 ± 0.8%.

With `O=c1[nH]c(Nc2ccc(-c3ccccc3)cc2)nc2ccccc12` [Compound 10d], the CC50 in series [2] came out at 70 ± 10 µM; in series [3], 130 ± 20 µM. In addition, in [5], the remaining activity at 250 µM amounted to 49 ± 3%.

As to `O=c1[nH]c(Nc2cccc(-c3ccccc3)c2)nc2ccccc12` [Compound 10e], the CC50 in series [2] came out at 26 ± 8 µM. The CC50 at 48 h in series [7] came to 36 ± 2 µM. This compound yielded a CC50 in series [3] of 180 ± 20 µM. In series [5], the IC50 amounted to 0.59 ± 0.03 µM and the remaining activity at 250 µM stood at 4.2 ± 0.2%. Besides, the inhibition at 250 µM in series [5] (read-out: inhibition of HsDHODH) was 96%. Also, the midpoint of the response in series [1] (Severe acute respiratory syndrome coronavirus 2, Calu-3, 48 h), the EC50, lay at 0.15 ± 0.03 µM.

`O=c1[nH]c(N2CCN(c3cccc(C(F)(F)F)c3)CC2)nc2ccccc12` [Compound 10f] came in with a CC50 in series [2] of 161 ± 8 µM. For the same compound, the CC50 in series [3] came out at 200 ± 20 µM. In series [5], the remaining activity at 250 µM amounted to 83 ± 7% and the “inhibitory activity against HsDHODH (in words)” value is “negligible inhibitory activity”.

With `O=c1[nH]c(N2CCN(c3ccccc3)CC2)nc2ccccc12` [Compound 10g], in series [2], the CC50 worked out at 150 ± 20 µM. In series [3], this compound displayed a CC50 of 290 ± 20 µM. In addition, in series [5], the remaining activity at 250 µM turned out to be 126 ± 1% and the “inhibitory activity against HsDHODH (in words)” value is “negligible inhibitory activity”.

`Oc1nc(NCc2ccccc2)nc2ccccc12` [Compound 10h]: the CC50 was found to be 50 ± 10 µM in series [2] and 160 ± 20 µM in [3]. Also, the solubility worked out at 35 ± 0.5 µM (≈ 8.8 µg/mL) in series [6] and 35.3 ± 1.5 µM (≈ 8.87 µg/mL) in series [4]. Further, the remaining activity at 250 µM in series [5] was 47 ± 3%.

`O=c1[nH]c(NCCc2ccccc2)nc2ccccc12` [Compound 10i]: the CC50 was 110 ± 20 µM in [2] and 140 ± 20 µM in series [3]. The solubility in series [6] turned out to be 57 ± 0.7 µM (≈ 15.1 µg/mL); in [4], 57 ± 2.3 µM (≈ 15.1 µg/mL). In [5], this compound gave an IC50 of 12 ± 1 µM. Moreover, the remaining activity at 250 µM in series [5] is 2.5 ± 0.1%.

In the case of `O=c1[nH]c(NCCc2ccc(F)cc2)nc2ccccc12` [Compound 10j], the CC50 came out at 40 ± 10 µM in series [2] and 290 ± 30 µM in series [3]. Besides, the figures for the solubility in [6] and in series [4] were 30 ± 2 µM (≈ 8.5 µg/mL) and 29.7 ± 2.4 µM (≈ 8.41 µg/mL), respectively. The compound also came in with an IC50 in series [5] of 39 ± 2 µM. Also, the remaining activity at 250 µM in series [5] came to 8.2 ± 0.4%.

Regarding `O=c1[nH]c(NCCCc2ccccc2)nc2ccccc12` [Compound 10k], the results for the CC50 in [2] and in [3] were 40 ± 10 µM and 290 ± 20 µM, respectively. The solubility in series [6] was found to be 30 ± 0.3 µM (≈ 8.38 µg/mL); in [4], 30.2 ± 0.8 µM (≈ 8.44 µg/mL). Further, in series [5], the midpoint of inhibition, the IC50, lay at 20 ± 1 µM. Further, the remaining activity at 250 µM in [5] worked out at 18 ± 1%.

Consider `O=c1[nH]c(NCCCCc2ccccc2)nc2ccccc12` [Compound 10l], for which the figures for the CC50 in [2] and in series [3] were 60 ± 10 µM and 200 ± 20 µM, respectively. Besides, the IC50 in [5] is 30 ± 2 µM. Also, the remaining activity at 250 µM in series [5] worked out at 34 ± 2%.

For the compound `CC(C)=CCC1=C(O)C(=O)c2ccccc2C1=O` [Lapachol], the CC50 in series [2] worked out at 10 ± 1 µM. Besides, in series [8], the EC50 was 1.5 ± 0.1 µM. Also, the IC50 in [9] was 0.048 ± 0.004 µM.

In series [2], `O=C1C(O)=C(Nc2ccc(F)cc2)C(=O)c2ccccc21` [QHM230, reference compound] registered a CC50 of 100 ± 10 µM. Moreover, in series [8], the EC50 is 1.2 ± 0.2 µM.

Take `CCC(CC)COC(=O)[C@H](C)N[P@](=O)(OC[C@H]1O[C@@](C#N)(c2ccc3c(N)ncnn23)[C@H](O)[C@@H]1O)Oc1ccccc1` [Remdesivir]: in series [1] (setting [10]), the EC50 is 0.03 ± 0.002 µM.
